These results are taken from PubChem BioAssay AID1259407 (Chemical Carcinogenesis Research Information System (CCRIS), 2018).

Activity calls are given as the source filed them. How the calls were made is not given here.

For this data set, the system named is CCRIS mutagenicity, Ames/micronucleus/aberration tests. Nature of the data set: CCRIS mutagenicity studies.
[1] abbreviates: Test System: AMES SALMONELLA TYPHIMURIUM, Strain/Indicator: TA100, Metabolic Activation: NONE, Method: STANDARD PLATE.
The mark [2] stands for this setting: Test System: AMES SALMONELLA TYPHIMURIUM, Strain/Indicator: TA100, Metabolic Activation: RAT, LIVER, S-9, AROCLOR 1254, Method: STANDARD PLATE.
[3] abbreviates: Test System: AMES SALMONELLA TYPHIMURIUM, Strain/Indicator: TA1535, Metabolic Activation: HAMSTER, LIVER, S-9, AROCLOR 1254, Method: STANDARD PLATE.
Setting [4] is: Test System: AMES SALMONELLA TYPHIMURIUM, Strain/Indicator: TA1535, Metabolic Activation: NONE, Method: STANDARD PLATE.

Turning to `CN(C)c1ccc(C(=O)c2ccc(N(C)C)cc2)cc1`, the mutagenic call (Test System: AMES SALMONELLA TYPHIMURIUM, Strain/Indicator: TA98, Metabolic Activation: MOUSE, LIVER, S-9, AROCLOR 1254, Method: STANDARD PLATE) was “inactive; negative”; the mutagenic call (Test System: AMES SALMONELLA TYPHIMURIUM, Strain/Indicator: TA98, Metabolic Activation: MOUSE, LIVER, S-9, Method: STANDARD PLATE) is “inactive; negative”; the mutagenic call (Test System: AMES SALMONELLA TYPHIMURIUM, Strain/Indicator: TA98, Metabolic Activation: NONE, Method: STANDARD PLATE) is “inactive; negative”; the mutagenic call (Test System: AMES SALMONELLA TYPHIMURIUM, Strain/Indicator: TA98, Metabolic Activation: RAT, LIVER, S-9, Method: STANDARD PLATE) was “inactive; negative”; the mutagenic call (Test System: AMES SALMONELLA TYPHIMURIUM, Strain/Indicator: TA100, Metabolic Activation: HAMSTER, LIVER, S-9, AROCLOR 1254, Method: STANDARD PLATE) is “inactive; negative”; the mutagenic call (Test System: AMES SALMONELLA TYPHIMURIUM, Strain/Indicator: TA100, Metabolic Activation: HAMSTER, LIVER, S-9, Method: STANDARD PLATE) was “inactive; negative”. Further, the mutagenic call was “inactive; negative” (Test System: AMES SALMONELLA TYPHIMURIUM, Strain/Indicator: TA100, Metabolic Activation: MOUSE, LIVER, S-9, Method: STANDARD PLATE); “inactive; negative” under setting [1]; “inactive; negative” under setting [2]; “inactive; negative” (Test System: AMES SALMONELLA TYPHIMURIUM, Strain/Indicator: TA100, Metabolic Activation: RAT, LIVER, S-9, Method: STANDARD PLATE); “inactive; negative” under setting [3]; “inactive; negative” (Test System: AMES SALMONELLA TYPHIMURIUM, Strain/Indicator: TA1535, Metabolic Activation: HAMSTER, LIVER, S-9, Method: STANDARD PLATE). Further, the mutagenic call reads like this: (Test System: AMES SALMONELLA TYPHIMURIUM, Strain/Indicator: TA1535, Metabolic Activation: MOUSE, LIVER, S-9, AROCLOR 1254, Method: STANDARD PLATE) “inactive; negative”; (Test System: AMES SALMONELLA TYPHIMURIUM, Strain/Indicator: TA1535, Metabolic Activation: MOUSE, LIVER, S-9, Method: STANDARD PLATE) “inactive; negative”; under setting [4], “inactive; negative”; (Test System: AMES SALMONELLA TYPHIMURIUM, Strain/Indicator: TA1535, Metabolic Activation: RAT, LIVER, S-9, AROCLOR 1254, Method: STANDARD PLATE) “inactive; negative”; (Test System: AMES SALMONELLA TYPHIMURIUM, Strain/Indicator: TA1535, Metabolic Activation: RAT, LIVER, S-9, Method: STANDARD PLATE) “inactive; negative”; (Test System: AMES SALMONELLA TYPHIMURIUM, Strain/Indicator: TA1537, Metabolic Activation: HAMSTER, LIVER, S-9, AROCLOR 1254, Method: STANDARD PLATE) “inactive; negative”. The mutagenic call reads like this: (Test System: AMES SALMONELLA TYPHIMURIUM, Strain/Indicator: TA1537, Metabolic Activation: MOUSE, LIVER, S-9, AROCLOR 1254, Method: STANDARD PLATE) “inactive; negative”; (Test System: AMES SALMONELLA TYPHIMURIUM, Strain/Indicator: TA1537, Metabolic Activation: MOUSE, LIVER, S-9, Method: STANDARD PLATE) “inactive; negative”; (Test System: AMES SALMONELLA TYPHIMURIUM, Strain/Indicator: TA1537, Metabolic Activation: NONE, Method: STANDARD PLATE) “inactive; negative”; (Test System: AMES SALMONELLA TYPHIMURIUM, Strain/Indicator: TA1537, Metabolic Activation: RAT, LIVER, S-9, AROCLOR 1254, Method: STANDARD PLATE) “inactive; negative”; (Test System: AMES SALMONELLA TYPHIMURIUM, Strain/Indicator: TA1537, Metabolic Activation: RAT, LIVER, S-9, Method: STANDARD PLATE) “inactive; negative”; (Test System: AMES SALMONELLA TYPHIMURIUM, Strain/Indicator: TA1538, Metabolic Activation: MOUSE, LIVER, S-9, Method: STANDARD PLATE) “inactive; negative”. The mutagenic call is, setting by setting: (Test System: AMES SALMONELLA TYPHIMURIUM, Strain/Indicator: TA1538, Metabolic Activation: NONE, Method: STANDARD PLATE) “inactive; negative”; (Test System: AMES SALMONELLA TYPHIMURIUM, Strain/Indicator: TA1538, Metabolic Activation: RAT, LIVER, S-9, Method: STANDARD PLATE) “inactive; negative”; (Test System: E. COLI, Strain/Indicator: WP2 UVRA, Metabolic Activation: HAMSTER, LIVER, S-9, AROCLOR 1254, Method: STANDARD PLATE) “inactive; negative”; (Test System: E. COLI, Strain/Indicator: WP2 UVRA, Metabolic Activation: HAMSTER, LIVER, S-9, Method: STANDARD PLATE) “inactive; negative”; (Test System: E. COLI, Strain/Indicator: WP2 UVRA, Metabolic Activation: MOUSE, LIVER, S-9, AROCLOR 1254, Method: STANDARD PLATE) “inactive; negative”; (Test System: E. COLI, Strain/Indicator: WP2 UVRA, Metabolic Activation: MOUSE, LIVER, S-9, Method: STANDARD PLATE) “inactive; negative”. Further, the mutagenic call (Test System: E. COLI, Strain/Indicator: WP2 UVRA, Metabolic Activation: NONE, Method: STANDARD PLATE) was “inactive; negative”; the mutagenic call (Test System: E. COLI, Strain/Indicator: WP2 UVRA, Metabolic Activation: RAT, LIVER, S-9, AROCLOR 1254, Method: STANDARD PLATE) was “inactive; negative”; the mutagenic call (Test System: E. COLI, Strain/Indicator: WP2 UVRA, Metabolic Activation: RAT, LIVER, S-9, Method: STANDARD PLATE) is “inactive; negative”.
With `CCCCN(CO)N=O`, the mutagenic call (Test System: CHINESE HAMSTER V-79, Strain/Indicator: V-79/OUABAIN, Metabolic Activation: NONE) is “active; positive”.
For the compound `CC(C)CN(N)CC(C)C`, the mutagenic call runs as follows: under setting [1], “active; positive”; under setting [2], “active; positive”; (Test System: AMES SALMONELLA TYPHIMURIUM, Strain/Indicator: TA102, Metabolic Activation: NONE, Method: STANDARD PLATE) “inactive; negative”; (Test System: AMES SALMONELLA TYPHIMURIUM, Strain/Indicator: TA102, Metabolic Activation: RAT, LIVER, S-9, AROCLOR 1254, Method: STANDARD PLATE) “inactive; negative”.
Take `O=c1nc(NNCCO)ccn1[C@@H]1O[C@H](CO)[C@@H](O)[C@H]1O`: the mutagenic call (Test System: CHINESE HAMSTER V-79, Strain/Indicator: V-79/6-THIOGUANINE, Metabolic Activation: NONE, Method: REPLATING) is “active; positive”.
Consider `O=[N+]([O-])c1cnc(CO)n1CCO`, for which the mutagenic call under setting [1] was “active; positive” and the mutagenic call under setting [2] was “active; positive”.
For the compound `Cc1ccc2c([N+](=O)[O-])cc[n+]([O-])c2c1`, the mutagenic call (Test System: UDS RODENT PRIMARY CELLS, Strain/Indicator: THY INCORP (NON-S-PHASE), Metabolic Activation: NONE, Method: AUTORADIOGRAPHY) is “active; positive”.
For `CN(Cc1ccc([N+](=O)[O-])cc1)N=O`, the mutagenic call is “active; positive” under setting [3] and “inactive; negative” under setting [4].
